Experiment [1] concerns the target Human CB1R (Cannabanoid receptor 1) (Homo sapiens (Human), UniProt P21554). The experiment in a line: CB-1 in vitro cAMP assay (HTRF). Type of experiment: cell-based. To be noted: mean where tested more than once. The source says:
(§1) CB1 and CB2 receptors are Gi-coupled GPCR. Activation of CB1 and CB2 receptors results in a decrease in cAMP production. An inverse agonist of the CB1 or CB2 receptor results in the opposite effect, an increase of cAMP production. The principle of this assay is based on HTRF® technology (Homogeneous Time-Resolved Fluorescence). The method is a competitive immunoassay between native cAMP produced by cells and the cAMP labeled with the fluorophore d2. The tracer binding is quantified by a Mab anti-cAMP labeled with Eu3+TBP-NHS Cryptate (supplied as part of the assay kit). The specific signal (i.e. energy transfer) is inversely proportional to the concentration of cAMP in the standard or sample.
(§2) Human CB1R (Cannabanoid receptor 1) was stably transfected in HEK-293 cells (DiscoveRx, cat: 93-0200C1). Human CB2R (Cannabanoid receptor 2) was stably transfected in HEK-293 cells (DiscoveRx, cat: 93-0201C1). Cell cultures were maintained in media: DMEM (Invitrogen Cat#12430-054) supplemented with 10% HI FBS (Invitrogen Cat#16140-071), 1% L-glutamine (Invitrogen Cat#25030-081), 0.2 mg/ml Hygromycin B (Invitrogen Cat#10687-010), 600 μg/mL G418 (Invitrogen Cat#10131-035), and 1× Penn/Strep (Invitrogen 15140-122). After cell expansion, aliquots were cryo-stored in media containing 5% DMSO (Pierce Cat#20684).
(§3) One day prior to experiments media was warmed to 37° C. and the cryo-stored cells were thawed in a 37° C. water bath. The cells were then added to media (10× volume) and the mixture was centrifugated at 1000 RPM for 5 min. The supernate was removed and the cells were re-suspended in media. A sample of the cell suspension was evaluated on a Cedex XS automated cell counter (Innovatis Systems) to determine viable cells/ml. Additional media was added to the cells to achieve a final cell density of 4E5 cells/mL. The cells were then plated into 384 well PDL white solid bottom plates (Greiner, Cat#781945) at 20 μL per well using a Multidrop (Thermo Scientific). Cells were removed from Row P (location of cAMP standards). Two columns of cells were plated into a clear bottom 384 well PDL coated plate (Greiner, Cat#781944) to view confluence the day of the assay. The cell plates were lidded and stored for 15 minutes in a hood, then transferred to an incubator (37° C., 5% CO2, 95% humidity) overnight.
(§4) DMSO was added to all wells of 384 well V bottom polystyrene plate (Greiner, Cat#781280) except to columns 1 and 13, rows O and P and wells M13-M23 and N13-N23. Test compounds (60 μL, 10 mM) were added to Column 1 and 13 (A1 through N1 and A13 through L13). Test compounds were serially diluted 1/3 by transferring and mixing 20 μl sample with 40 μL DMSO.
(§5) DMSO (40 μL) was added to wells of 384 well V bottom polystyrene plate: O2 through O11, M14 through M23, N14 through N23, and O14 through O23. AM630 (also known as [6-iodo-2-methyl-1-[2-(4-morpholinyl)ethyl]-1H-indol-3-yl](4-methoxyphenyl)-methanone, Cayman Chemical, Cat#10006974) (60 μL, 10 mM) was added to O1; and 1-(2,4-dichlorophenyl)-7-[(4-fluorophenyl)methylene]-4,5,6,7-tetrahydro-N-1-piperidinyl-1H-indazole-3-carboxamide (60 μL, 10 mM) was added to N13. The control was serially diluted 1/3 by transferring and mixing 20 μl sample with 40 μL DMSO. This process resulted 11 doses per control, 10 mM to […].
(§6) Cells plated the day prior to the assay in clear bottom plates were viewed on an inverse microscope to ensure confluency in the range of 60-75%. […]

For experiment [2], the target named is Human CB2R (Cannabanoid receptor 2) (Homo sapiens (Human), UniProt P34972). As to the kind of experiment: CB-2 in vitro cAMP assay (HTRF). Type of experiment: cell-based. As to conditions: mean where tested more than once.
Chain of Human CB2R (Cannabanoid receptor 2) (P34972 whole entry): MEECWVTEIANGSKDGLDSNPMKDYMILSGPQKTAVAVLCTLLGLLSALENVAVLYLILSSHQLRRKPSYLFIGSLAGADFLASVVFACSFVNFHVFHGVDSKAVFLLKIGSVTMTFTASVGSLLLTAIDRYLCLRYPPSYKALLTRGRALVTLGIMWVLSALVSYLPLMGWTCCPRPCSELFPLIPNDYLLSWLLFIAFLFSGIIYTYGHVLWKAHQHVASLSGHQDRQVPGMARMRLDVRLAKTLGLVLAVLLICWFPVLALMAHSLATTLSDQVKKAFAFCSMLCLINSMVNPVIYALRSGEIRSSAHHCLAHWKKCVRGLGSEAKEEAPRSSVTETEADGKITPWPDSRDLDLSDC
Description: as §1, §2, §3, §4, §5, §6

pEC50: −log10 of the molar value.

Chain of Human CB1R (Cannabanoid receptor 1) (P21554 whole entry): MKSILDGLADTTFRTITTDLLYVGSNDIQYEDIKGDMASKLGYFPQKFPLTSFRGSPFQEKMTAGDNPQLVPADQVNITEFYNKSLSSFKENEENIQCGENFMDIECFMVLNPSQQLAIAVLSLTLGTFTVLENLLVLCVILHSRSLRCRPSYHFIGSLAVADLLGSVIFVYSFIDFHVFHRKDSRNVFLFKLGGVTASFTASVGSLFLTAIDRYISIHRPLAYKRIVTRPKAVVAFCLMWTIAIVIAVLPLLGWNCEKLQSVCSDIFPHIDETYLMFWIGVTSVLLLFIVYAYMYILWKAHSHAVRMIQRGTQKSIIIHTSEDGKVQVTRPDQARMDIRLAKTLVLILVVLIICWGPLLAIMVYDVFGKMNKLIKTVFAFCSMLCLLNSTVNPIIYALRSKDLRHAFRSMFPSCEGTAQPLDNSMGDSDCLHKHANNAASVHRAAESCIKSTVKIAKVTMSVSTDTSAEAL

On to `Fc1ccc(C(c2ccc(F)cc2)c2ccc3ncnc(NC4CCN(c5ccccc5)CC4)c3c2)cc1` [Compound #67, 6-(bis(4-fluorophenyl)methyl)-N-(1-phenylpiperidin-4-yl)quinazolin-4-amine], for which the negative logarithm of the EC50 (pEC50) is 9.00 in experiment [1] and 5.94 in experiment [2].

Consider `O=C(c1ccccc1)N1CCC(Nc2ncnc3ccc(C(c4ccc(Cl)cc4)c4ccc(Cl)cc4)cc23)CC1` [compound 119, (4-(6-(bis(4-chlorophenyl)methyl)quinazolin-4-ylamino)piperidin-1-yl)(phenyl)methanone], for which the pEC50 was 8.30 in experiment [1] and 6.04 in experiment [2].

For the molecule `COc1ccc(C(c2ccc(Cl)cc2)c2ccc3ncnc(NC4CCN(c5ccccc5)CC4)c3c2)cc1` (stereo not drawn) [Compound #58, 6-((4-chlorophenyl)(4-methoxyphenyl)methyl)-N-(1-phenylpiperidin-4-yl)quinazolin-4-amine], the results for the pEC50 in experiment [1] and in experiment [2] were 9.30 and 7.17, respectively.

Turning to `O=C(O)c1cccc(N2CCC(Nc3ncnc4ccc(C(c5ccc(Cl)cc5)c5ccc(Cl)cc5)cc34)CC2)c1` [compound 95, 3-(4-(6-(bis(4-chlorophenyl)methyl)quinazolin-4-ylamino)piperidin-1-yl)benzoic acid], the pEC50 in experiment [1] is 6.09; in experiment [2], 5.50.

Turning to `CNc1nc(NC2CCN(S(=O)(=O)C(F)(F)F)CC2)c2cc(C(c3ccc(Cl)cc3)c3ccc(Cl)cc3)ccc2n1` [Compound #113, 6-(bis(4-chlorophenyl)methyl)-N2-methyl-N4-(1-((trifluoromethyl)sulfonyl)piperidin-4-yl)quinazoline-2,4-diamine], the pEC50 in experiment [1] is 6.60; in experiment [2], < 5.00.

As to `Clc1ccc(C(c2ccc(Cl)cc2)c2ccc3ncnc(NC4CCN(CCc5ccccc5)CC4)c3c2)cc1` [Compound #11, 6-(bis(4-chlorophenyl)methyl)-N-(1-phenethylpiperidin-4-yl)quinazolin-4-amine], the pEC50 in experiment [1] is 6.91; in experiment [2], < 5.00.

Take `O=S(=O)(N1CCC(CNc2ncnc3ccc(C(c4ccc(Cl)cc4)c4ccc(Cl)cc4)cc23)CC1)C(F)(F)F` [compound 135, 6-(bis(4-chlorophenyl)methyl)-N-((1-(trifluoromethylsulfonyl)piperidin-4-yl)methyl)quinazolin-4-amine]: the pEC50 is 8.10 in experiment [1] and 5.54 in experiment [2].

Consider `O=S1(=O)CCN(CCNc2ncnc3ccc(C(c4ccc(Cl)cc4)c4ccc(Cl)cc4)cc23)CC1` [Compound #6, 4-(2-((6-(bis(4-chlorophenyl)methyl)quinazolin-4-yl)amino)ethyl)thiomorpholine 1,1-dioxide], for which the results for the pEC50 in experiment [1] and in experiment [2] were 7.46 and 6.34, respectively.

Consider `OCCCCOc1nc(NCc2cccc(C(F)(F)F)c2)c2cc(C(c3ccc(Cl)cc3)c3ccc(Cl)cc3)ccc2n1` [Compound #53, 4-((6-(bis(4-chlorophenyl)methyl)-4-((3-(trifluoromethyl)benzyl)amino)quinazolin-2-yl)oxy)butan-1-ol], for which the pEC50 was 7.38 in experiment [1] and 5.43 in experiment [2].

Turning to `NC(=O)CS(=O)(=O)N1CCC(Nc2ncnc3ccc(C(c4ccc(Cl)cc4)c4ccc(Cl)cc4)cc23)CC1` [Compound #98, 2-((4-((6-(bis(4-chlorophenyl)methyl)quinazolin-4-yl)amino)piperidin-1-yl)sulfonyl)acetamide], the pEC50 is 6.63 in experiment [1] and 5.10 in experiment [2].

Regarding `O=C(COc1nc(NCc2cccc(C(F)(F)F)c2)c2cc(C(c3ccc(Cl)cc3)c3ccc(Cl)cc3)ccc2n1)NCCO` [Compound #40, 2-((6-(bis(4-chlorophenyl)methyl)-4-((3-(trifluoromethyl)benzyl)amino)quinazolin-2-yl)oxy)-N-(2-hydroxyethyl)acetamide], the pEC50 was 8.00 in experiment [1] and 5.78 in experiment [2].

On to `COC(=O)CS(=O)(=O)N1CCC(Nc2ncnc3ccc(C(c4ccc(Cl)cc4)c4ccc(Cl)cc4)cc23)CC1` [Compound #110, Methyl 2-((4-((6-(bis(4-chlorophenyl)methyl)quinazolin-4-yl)amino)piperidin-1-yl)sulfonyl)acetate], for which the pEC50 in experiment [1] is 7.39; in experiment [2], 5.49.

With `O=C(O)c1cccc(CN2CCC(Nc3ncnc4ccc(C(c5ccc(Cl)cc5)c5ccc(Cl)cc5)cc34)CC2)c1` [Compound #37, 3-((4-((6-(bis(4-chlorophenyl)methyl)quinazolin-4-yl)amino)piperidin-1-yl)methyl)benzoic acid], the negative logarithm of the EC50 (pEC50) was 6.84 in experiment [1] and 5.17 in experiment [2].

`OCC(CO)COc1nc(NCc2cccc(C(F)(F)F)c2)c2cc(C(c3ccc(Cl)cc3)c3ccc(Cl)cc3)ccc2n1` [Compound #49, 2-(((6-(bis(4-chlorophenyl)methyl)-4-((3-(trifluoromethyl)benzyl)amino)quinazolin-2-yl)oxy)methyl)propane-1,3-diol]: the pEC50 in experiment [1] was 8.40; in experiment [2], 5.71.

For `O=C(NCCO)c1ccc(N2CCC(Nc3ncnc4ccc(C(c5ccc(Cl)cc5)c5ccc(Cl)cc5)cc34)CC2)cc1` [Compound #84, 4-(4-((6-(bis(4-chlorophenyl)methyl)quinazolin-4-yl)amino)piperidin-1-yl)-N-(2-hydroxyethyl)benzamide], the pEC50 in experiment [1] is 7.59; in experiment [2], 6.49.

`CC(=O)Nc1nc(NC2CCN(S(=O)(=O)C(F)(F)F)CC2)c2cc(C(c3ccc(Cl)cc3)c3ccc(Cl)cc3)ccc2n1` [Compound #106, N-(6-(bis(4-chlorophenyl)methyl)-4-((1-((trifluoromethyl)sulfonyl)piperidin-4-yl)amino)quinazolin-2-yl)acetamide]: the pEC50 in experiment [1] was 7.15; in experiment [2], 5.24.

Turning to `COc1cc(S(=O)(=O)N2CCC(Nc3ncnc4ccc(C(c5ccc(Cl)cc5)c5ccc(Cl)cc5)cc34)CC2)ccc1C(=O)O` [Compound #22, 4-((4-((6-(bis(4-chlorophenyl)methyl)quinazolin-4-yl)amino)piperidin-1-yl)sulfonyl)-2-methoxybenzoic acid], the results for the pEC50 in experiment [1] and in experiment [2] were 7.64 and 6.55, respectively.

For the molecule `CS(=O)(=O)Nc1nc(NC2CCN(S(=O)(=O)C(F)(F)F)CC2)c2cc(C(c3ccc(Cl)cc3)c3ccc(Cl)cc3)ccc2n1` [Compound #100, N-(6-(bis(4-chlorophenyl)methyl)-4-((1-((trifluoromethyl)sulfonyl)piperidin-4-yl)amino)quinazolin-2-yl)methanesulfonamide], the pEC50 in experiment [1] is 6.36; in experiment [2], < 5.00.

Turning to `O=C(O)c1ccc(N2CCC(Nc3ncnc4ccc(C(c5ccc(Cl)cc5)c5ccc(Cl)cc5)cc34)CC2)cc1` [Compound #92, 4-(4-((6-(bis(4-chlorophenyl)methyl)quinazolin-4-yl)amino)piperidin-1-yl)benzoic acid], the pEC50 in experiment [1] was 6.16; in experiment [2], 6.71.

For the molecule `O=S(=O)(c1ccccn1)N1CCC(Nc2ncnc3ccc(C(c4ccc(Cl)cc4)c4ccc(Cl)cc4)cc23)CC1` [compound 111, 6-(bis(4-chlorophenyl)methyl)-N-(1-(pyridin-2-ylsulfonyl)piperidin-4-yl)quinazolin-4-amine], the negative-log EC50 (pEC50) in experiment [1] is 7.82; in experiment [2], 5.56.

For the molecule `O=C(O)COc1ccc(S(=O)(=O)N2CCC(Nc3ncnc4ccc(C(c5ccc(Cl)cc5)c5ccc(Cl)cc5)cc34)CC2)cc1` [Compound #3, 2-(4-((4-((6-(bis(4-chlorophenyl)methyl)quinazolin-4-yl)amino)piperidin-1-yl)sulfonyl)phenoxy)acetic acid], the pEC50 in experiment [1] was 7.01; in experiment [2], 5.46.

Values taken from patent US9682955B2, “Quinazoline derivatives useful as CB-1 inverse agonists” (Janssen Pharmaceutica NV, priority 2014, dated 2017).
